Results as given in patent US10434090B2, “Pharmaceutical composition containing a hypomethylating agent and a histone deacetylase inhibitor” (NIMBLE EPITECH, LLC, priority 2009, dated 2019).

Conditions: reservoir patch, drug at saturation, cladribine in ethanol/DMSO (50/50), entinostat in ethanol/water (2/1), human cadaver epidermis
Description: A feasibility study of transdermal delivery of cladribine and HDAC inhibitors was conducted using the Franz Cell Method. The scope of the ongoing study is to determine the passive transdermal diffusion rate (passive perfusion) of cladribine and multiple HDAC inhibitors for creation of continuous transdermal delivery for induction therapy.
Cladribine was mixed with about 2 percent of a concentration of a thickener comprising a cellulose component to thicken the cladribine composition.
All testing was performed in an incubator at 32 degrees Celsius.
Round pieces of human cadaveric skin were cut out. The patches were placed on top of the skin and mounted in the Franz Cells between the donor compartment and the receiver compartments of the cell. The two compartments were tightened together with a screw-on pinch clamp.
The results of transdermal flux were graphed as a function of time.

lag time before sustained transdermal delivery: 10 h
optimum transdermal flux (32 degrees Celsius, 24 hour): 170 μg/cm^2/day
Structure (SMILES): Nc1nc(Cl)nc2c1ncn2[C@H]1C[C@H](O)[C@@H](CO)O1 [Cladribine]
